From publication PMC5520216, “Frutapin, a lectin from Artocarpus incisa (breadfruit): cloning, expression and molecular insights” (Bioscience Reports, 2017)
Blank lines part the entries; values can stand above or below the compound they belong to.

Tests used:
[1] = molecular target: T1, Frutapin (FTP), recombinant (Artocarpus altilis, UniProt A0A2D0TC52); test: inhibition of haemagglutination of red blood cells, double serial dilution; format: cell-based; settings: 37 °C, 1 h, visual read-out, carbohydrate-binding site
T1 construct: full-length FTP (450 bp clone from leaf cDNA, codon-optimised ORF), pET SUMO in E. coli BL21, His-SUMO tag cut off with ULP1
T1 sequence (A0A2D0TC52 entry or part of it): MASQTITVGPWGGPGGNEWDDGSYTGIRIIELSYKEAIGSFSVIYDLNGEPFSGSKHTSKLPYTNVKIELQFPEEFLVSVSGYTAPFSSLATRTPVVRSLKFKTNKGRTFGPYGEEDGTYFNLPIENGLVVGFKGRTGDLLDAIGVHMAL

[2] = molecular target: T1, Frutapin (FTP), recombinant; test: X-ray co-crystal structure, […] Å; settings: co-crystallised with 100 mM glucose, glycerol removed; carbohydrate-binding site of all four monomers
[3] = molecular target: T1, Frutapin (FTP), recombinant; test: X-ray co-crystal structure, […] Å; settings: co-crystallised with 20 mM mannose, glycerol removed; carbohydrate-binding site of all four monomers
[4] = molecular target: Frutapin (FTP), recombinant, mannose-binding lectin from Artocarpus incisa (breadfruit) (Artocarpus incisa (breadfruit)); test: native gel or EMSA; native gel electrophoresis of purified FTP after removal of the SUMO tag; size from a plot of Rf against log10 (MWt)

inhibitory sugar concentration ([1]; 42.8 µg/ml FTP): 100 mM
Compound: OC[C@H]1OC(O)[C@H](O)[C@@H](O)[C@@H]1O (some centres unmarked) [glucose]

inhibitory sugar concentration ([1]; 12.4 µg/ml FTP): 6.25 mM
Compound: OC[C@H]1OC(O)[C@@H](O)[C@@H](O)[C@@H]1O (some centres unmarked) [mannose]

stoichiometry N [4]: 4
Compound: Frutapin (FTP), recombinant, mannose-binding lectin from Artocarpus incisa (breadfruit) (natural protein)

The next lines start with the compound.

Compound: OC[C@H]1O[C@H](O)[C@H](O)[C@@H](O)[C@@H]1O [α-D-glucose]
X-ray co-crystal structure, 1.60 Å [2]: FTP was also co-crystallized with mannose and glucose

Compound: OC[C@H]1O[C@H](O)[C@@H](O)[C@@H](O)[C@@H]1O [α-D-mannose]
X-ray co-crystal structure, 1.70 Å [3]: FTP was also co-crystallized with mannose and glucose
